According to patent US20120295838A1, “Selective poly-substituted glycine antibiotics and related compositions” (priority 2008, published 2012):
Where two headings read alike, the source gives them in different places. Numbered stars: 1 amine (or outer) side, 2 acyl side, 3 side chain; on linkers, the order of the positions; unused ones are H or OH. Square brackets hold non-standard residues; d marks the D form. Peptide text beside a SMILES is read from it. N(1S-Me-propyl)Gly = CC[C@H](C)NCC(=O)O; X1 = CC(C)[C@H](C)N(CC(=O)[*:2])[*:1]; Nrpe = C[C@@H](NCC(=O)O)c1ccccc1; Nspe = C[C@H](NCC(=O)O)c1ccccc1; Nlys = NCCCCNCC(=O)O

What was measured:
MTS assay, NIH 3T3 cells = type: cell-based, mouse; conditions: NIH 3T3 fibroblast cells
Protocol: The potencies of all compounds were determined against representative Gram-negative (E. coli ATCC 35218) and Gram-positive (B. subtilis ATCC 6633) biosafety level 1 (BSL1) organisms. In addition to hemolytic activity, the conventional measure of toxicity to mammalian cells, the effect of each ampetoid on NIH 3T3 mouse fibroblast cells was determined using the MTS tetrazolium salt-based colorimetric assay. While hemolysis measures the degree to which erythrocytes are lysed, the MTS assay indirectly quantifies the extent to which cellular metabolic activity is inhibited.
MTS assays. NIH/3T3 cells (ATCC Corporation) cultured at 37° C. and 5% CO2 in complete Dulbecco's modified eagle's media (CDMEM) supplemented with 1% sodium pyruvate, 1% penicillin-streptomycin, 1.5 g/L NaHCO3, and 10% fetal bovine serum. Cells were seeded at a density of 5,000 cells per well for NIH/3T3 cells in 96-well plates (100 μl total volume). A peptoid solution plate (100 μL total volume per well) was prepared by serial dilution of aqueous peptoid stock solution in Hank's balanced salt solution (HBSS) media. The day-old cell monolayers were washed with HBSS and media was replaced with 100 μL HBSS. The contents of the peptoid solution plate were transferred onto corresponding wells of the cell monolayer plate, and 40 μL MTS reagent (Promega, Inc.) was added to each well. After incubating for 3 hours at 37° C., absorbance at 490 nm was determined. […] The average of six replicates is reported.

E. coli ATCC 35218 = type: cell-based; conditions: ATCC 35218
Protocol: Whereas the preceding generation of molecules was designed to elucidate structure function relationships of specific molecular parameters (chirality, length, hydrophobicity, etc.), another generation compounds were designed explicitly to explore effects on selectivity. Antimicrobial activity of these compounds was tested against bacterial strains E. coli (ATTC 35218) and B. subtilis (ATTC 6633) in cation-adjusted MHB using the microdilution protocols previously described. The sequences, antimicrobial activities, hemolytic activities, and metabolic inhibitory concentrations against NIH 3T3 mouse fibroblast cells are summarized in Table 3 and the rationale of their design is described below.
Screening antibacterial assays. MICs were determined in 96-well microtiter plates in accordance with CLSI M7-A6 protocols. Peptoid solutions with 50 μL total volume were prepared using 2:1 serial dilutions. 50 i—tL of bacteria inoculum (1×10^6 CFU/mL) prepared in cation-adjusted Mueller-Hinton broth (CAMHB) was added to test wells. Control wells contained 100 μL MHB (no growth) or 50 μL inoculums with 50 μL MHB with no peptoid. […] Reported values were reproducible over three experiments, each containing two parallel trials.
Antibacterial Assays for Compositions. MICs were determined according to CLSI M7-A6 protocols in a 96-well microtiter plate. In test wells, 50 μL bacterial inoculum (1×10^6 CFU/ml) in cation-adjusted Mueller-Hinton broth (CAMHB) was added to 50 μL peptoid solution in CAMHB (prepared by 1:2 serial dilutions). Positive controls contained 50 μL inoculum and 50 μL CAMHB without peptoid. […] MIC values reported were reproducible between three independent experimental replicates, each consisting of two parallel trials.

human erythrocytes = test: Hemolysis assay; type: cell-based
Protocol: (§1) Hemolysis assays. Erythrocytes were isolated from freshly drawn, heparanized human blood and resuspended to 20 vol % in PBS (pH 7.4). In a 96-well microtiter plate, 100 μL erythrocyte suspension was added to 100 uL peptoid solution in PBS (prepared by 1:2 serial dilutions), or 100 μL PBS in the case of negative controls. 100% hemolysis wells contained 100 μL, blood cell suspension with 100 μL 0.2 vol % Triton X-100. The plate was incubated for 1 h at 37° C., then each well was diluted with 1504 PBS. The plate was then centrifuged at 1200 g for 15 min, 100 μL of the supernatant from each well transferred to a fresh microtiter plate, and A350 measured.
Hemolysis assays. Erythrocytes were isolated from freshly drawn, heparanized human blood and resuspended in PBS (pH 7.4) to make a 20% volume suspension. Peptoid solutions were prepared by serial dilution (2:1) in a 96-well microtiter plate. For test wells, 100 μLL of erythrocyte suspension was added to 100 μL of peptoid solution in PBS; PBS without peptoid was used as the negative control and 0.2 vol % Triton X-100 as the positive control that indicates 100% hemolysis. After 1 hour incubation at 37° C., each well was diluted with 150 μL PBS. Plates were then centrifuged at 1,200×g for 15 minutes to pellet the cells. 30 μL of the supernatant from each well were transferred to the corresponding well of a second 96-well plate that contains 70 μL PBS.
as §1, with “assays for Compositions.” for “assays.”, “100” for “100 uL”, “μL” for “μL,”, “150 μL” for “1504”, “1200g” for “1200 g”

[1] = Table 6, 50% inhibitory dose against NIH 3T3 mouse fibroblast cells, read-out: ID50

SMILES	CC50 at 3 h (MTS assay, NIH 3T3 cells; mouse) [µM]	E. coli MIC (E. coli ATCC 35218) [µM]	also measured
C[C@@H](c1ccccc1)N(CC(N)=O)C(=O)CN(CCCCN)C(=O)CN(C(=O)CN(C(=O)CN(CCCCN)C(=O)CN(C(=O)CN(C(=O)CN(CCCCN)C(=O)CN(C(=O)CN(C(=O)CNCCCCN)[C@@H](C)c1ccccc1)[C@@H](C)c1ccccc1)[C@@H](C)c1ccccc1)[C@@H](C)c1ccccc1)[C@@H](C)c1ccccc1)[C@@H](C)c1ccccc1 [111 mer, H-(Nlys-Nspe-Nspe)3-Nlys-Nspe-NH2] (H-[Nlys][Nspe][Nspe][Nlys][Nspe][Nspe][Nlys][Nspe][Nspe][Nlys][Nspe]-NH2)	11	6.3	
C[C@H](NCC(=O)N(CCCCN)CC(=O)N(CC(=O)N(CCCCN)CC(=O)N(CCCCN)CC(=O)N(CCCCN)CC(=O)N(CC(=O)N(CCCCN)CC(=O)N(CC(=O)N(CCCCN)CC(=O)N(CCCCN)CC(=O)N(CC(N)=O)[C@@H](C)c1ccccc1)[C@@H](C)c1ccccc1)[C@@H](C)c1ccccc1)[C@@H](C)c1ccccc1)c1ccccc1 [1B12 mer-Nlys4,6,10, H-Nspe-Nlys-Nspe-Nlys-Nlys-Nlys-Nspe-Nlys-Nspe-Nlys-Nlys-Nspe-NH2] (H-[Nspe][Nlys][Nspe][Nlys][Nlys][Nlys][Nspe][Nlys][Nspe][Nlys][Nlys][Nspe]-NH2)	> 100		
C[C@@H](c1ccccc1)N(CC(N)=O)C(=O)CN(C(=O)CN(CCCCN)C(=O)CN(C(=O)CN(C(=O)CNCCCCN)[C@@H](C)c1ccccc1)[C@@H](C)c1ccccc1)[C@@H](C)c1ccccc1 [16 mer, H-(Nlys-Nspe-Nspe)2-NH2] (H-[Nlys][Nspe][Nspe][Nlys][Nspe][Nspe]-NH2)			HD10 (human erythrocytes): >200/>200 μM; HD50 (human erythrocytes): >200/>200 μM
C[C@H](c1ccccc1)N(CC(N)=O)C(=O)CN(C(=O)CN(CCCCN)C(=O)CN(C(=O)CN(C(=O)CN(CCCCN)C(=O)CN(C(=O)CN(C(=O)CN(CCCCN)C(=O)CN(C(=O)CN(C(=O)CNCCCCN)[C@@H](C)c1ccccc1)[C@H](C)c1ccccc1)[C@@H](C)c1ccccc1)[C@H](C)c1ccccc1)[C@@H](C)c1ccccc1)[C@H](C)c1ccccc1)[C@@H](C)c1ccccc1 [1-Nrpe3,6,9,12, H-(Nlys-Nspe-Nrpe)4-NH2]			CC50 at 3 h (MTS assay, NIH 3T3 cells; [1]): 3.8 µM
C[C@H](c1ccccc1)N(CC(=O)N(CCCCN)CC(=O)N(CC(=O)N(CC(=O)N(CCCCN)CC(=O)N(CC(=O)N(CC(=O)N(CCCCN)CC(=O)N(CC(=O)N(CC(N)=O)[C@@H](C)c1ccccc1)[C@@H](C)c1ccccc1)[C@@H](C)c1ccccc1)[C@@H](C)c1ccccc1)[C@H](C)c1ccccc1)[C@H](C)c1ccccc1)C(=O)CN(C(=O)CNCCCCN)[C@H](C)c1ccccc1 [1-Nrpe2,3,5,6, H-(Nlys-Nrpe-Nrpe)2-(Nlys-Nspe-Nspe)2-NH2] (H-[Nlys][Nrpe][Nrpe][Nlys][Nrpe][Nrpe][Nlys][Nspe][Nspe][Nlys][Nspe][Nspe]-NH2)			CC50 at 3 h (MTS assay, NIH 3T3 cells; [1]): 4.8 µM
C[C@H](c1ccccc1)N(CC(=O)N(CC(N)=O)[C@@H](C)c1ccccc1)C(=O)CN(CCCCN)C(=O)CN(C(=O)CN(C(=O)CN(CCCCN)C(=O)CN(C(=O)CN(C(=O)CN(CCCCN)C(=O)CN(C(=O)CN(C(=O)CNCCCCN)[C@H](C)c1ccccc1)[C@@H](C)c1ccccc1)[C@H](C)c1ccccc1)[C@@H](C)c1ccccc1)[C@H](C)c1ccccc1)[C@@H](C)c1ccccc1 [1-Nrpe2,5,8,11, H-(Nlys-Nrpe-Nspe)4-NH2] (H-[Nlys][Nrpe][Nspe][Nlys][Nrpe][Nspe][Nlys][Nrpe][Nspe][Nlys][Nrpe][Nspe]-NH2)			CC50 at 3 h (MTS assay, NIH 3T3 cells; [1]): 5.2 µM
CC(C)[C@H](C)N(CC(=O)N(CCCCN)CC(=O)N(CC(=O)N(CC(=O)N(CCCCN)CC(=O)N(CC(=O)N(CC(=O)N(CCCCN)CC(=O)N(CC(=O)N(CC(N)=O)[C@@H](C)c1ccccc1)[C@@H](C)c1ccccc1)[C@@H](C)C(C)C)[C@@H](C)C(C)C)[C@@H](C)c1ccccc1)[C@@H](C)c1ccccc1)C(=O)CN(C(=O)CNCCCCN)[C@@H](C)C(C)C [1-Nsdp2,3,8,9, H-(Nlys-Nsdp-Nsdp-Nlys-Nspe-Nspe)2-NH2] (H-[Nlys][X1][X1][Nlys][Nspe][Nspe][Nlys][X1][X1][Nlys][Nspe][Nspe]-NH2)	19	12.5	
C[C@H](NCC(=O)N(CCCCN)CC(=O)N(CC(=O)N(CCCCN)CC(=O)N(CCCCN)CC(=O)N(CC(=O)N(CC(=O)N(CCCCN)CC(=O)N(CC(=O)N(CCCCN)CC(=O)N(CCCCN)CC(=O)N(CC(=O)N(CC(=O)N(CCCCN)CC(=O)N(CC(N)=O)[C@@H](C)c1ccccc1)[C@@H](C)c1ccccc1)[C@@H](C)c1ccccc1)[C@@H](C)c1ccccc1)[C@@H](C)c1ccccc1)[C@@H](C)c1ccccc1)[C@@H](C)c1ccccc1)c1ccccc1 [1B15 mer-Nlys4,10, H-(Nspe-Nlys-Nspe-Nlys-Nlys-Nspe)2-Nspe-Nlys-Nspe-NH2] (H-[Nspe][Nlys][Nspe][Nlys][Nlys][Nspe][Nspe][Nlys][Nspe][Nlys][Nlys][Nspe][Nspe][Nlys][Nspe]-NH2)	16	50	
C[C@H](NCC(=O)N(CCCCN)CC(=O)N(CC(=O)N(CCCCN)CC(=O)N(CCCCN)CC(=O)N(CC(=O)N(CC(=O)N(CCCCN)CC(=O)N(CC(=O)N(CCCCN)CC(=O)N(CCCCN)CC(=O)N(CC(N)=O)[C@@H](C)c1ccccc1)[C@@H](C)c1ccccc1)[C@@H](C)c1ccccc1)[C@@H](C)c1ccccc1)[C@@H](C)c1ccccc1)c1ccccc1 [1B12 mer-Nlys4,10, H-(Nspe-Nlys-Nspe-Nlys-Nlys-Nspe)2-NH2] (H-[Nspe][Nlys][Nspe][Nlys][Nlys][Nspe][Nspe][Nlys][Nspe][Nlys][Nlys][Nspe]-NH2)	83	50	
CC[C@H](C)N(CC(=O)N(CC(=O)N(CC(=O)N(CCCCN)CC(N)=O)[C@@H](C)c1ccccc1)[C@@H](C)CC)C(=O)CN(CCCCN)C(=O)CN(C(=O)CN(CCCCN)C(=O)CN(C(=O)CN(C(=O)CN(C(=O)CN(C(=O)CNCCCCN)[C@@H](C)CC)[C@@H](C)c1ccccc1)[C@@H](C)CC)[C@@H](C)c1ccccc1)[C@@H](C)c1ccccc1 [2scrambled, H-Nlys-Nssb-Nspe-Nssb-Nspe-Nlys-Nspe-Nlys-Nssb-Nssb-Nspe-Nlys-NH2] (H-[Nlys][N(1S-Me-propyl)Gly][Nspe][N(1S-Me-propyl)Gly][Nspe][Nlys][Nspe][Nlys][N(1S-Me-propyl)Gly][N(1S-Me-propyl)Gly][Nspe][Nlys]-NH2)			HD10 (10% hemolytic dose) (human erythrocytes): > 120 µM
C[C@@H](c1ccccc1)N(CC(N)=O)C(=O)CN(C(=O)CN(CCC(=O)O)C(=O)CN(C(=O)CN(C(=O)CN(CCC(=O)O)C(=O)CN(C(=O)CN(C(=O)CN(CCC(=O)O)C(=O)CN(C(=O)CN(C(=O)CNCCC(=O)O)[C@@H](C)c1ccccc1)[C@@H](C)c1ccccc1)[C@@H](C)c1ccccc1)[C@@H](C)c1ccccc1)[C@@H](C)c1ccccc1)[C@@H](C)c1ccccc1)[C@@H](C)c1ccccc1 [1-Nglu1.4.7.10, H-(Nglu-Nspe-Nspe)4-NH2]			HD10 (10% hemolytic dose) (human erythrocytes; red cells of human, 1 h): >110/>110 μM
